Data reported in US4921850A, “3-propenylcephem derivative” (Eisai Co., Ltd., priority 1986, dated 1990).
Converted amounts (≈) assume the structure as drawn. Read-outs that look alike come from different tables or passages of the source.

Key:
Test in all cases: Anti-bacterial activity (MIC), agar dilution
Assay type in all cases: cell-based
[1] = tested on: Ser. marcescens ES-75; settings: Ser. marcescens ES-75, agar dilution, about 10^6 CFU/ml, 18 hours, 37° C.
Outline: (§1)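 Overnight Mueller-Hinton broth cultures were diluted to about 10^6 CFU/ml and spotted onto Mueller-Hinton agar plates carrying twofold serial dilutions of antibiotic. After 18 hours at 37° C, MIC (μg/ml) was determined by agar dilution.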

[2] = tested on: Kleb. pneumoniae EK-6; settings: Kleb. pneumoniae EK-6, agar dilution, about 10^6 CFU/ml, 18 hours, 37° C.
Outline: as §1

[3] = tested on: Staph. aureus 209-P; settings: Staph. aureus 209-P, agar dilution, about 10^6 CFU/ml, 18 hours, 37° C.
Outline: as §1

[4] = tested on: Escher. coli NIHJ; settings: Escher. coli NIHJ, agar dilution, about 10^6 CFU/ml, 18 hours, 37° C.
Outline: as §1

[5] = tested on: Pseud. aeruginosa EP-01; settings: Pseud. aeruginosa EP-01, agar dilution, about 10^6 CFU/ml, 18 hours, 37° C.
Outline: as §1

[6] = tested on: Morganella morganii EP-14; settings: about 10^6 CFU/ml, 37° C.
Outline: as §1

[7] = Serratia marcescens, ES75, 18 h, read-out: MIC
[8] = Klebsiella pneumoniae, EK6, 18 h, read-out: MIC
[9] = Staphylococcus aureus, 209P, 18 h, read-out: MIC
[10] = Escherichia coli, 18 h, read-out: MIC
[11] = Pseudomonas aeruginosa, EP01, 18 h, read-out: MIC
[12] = Morganella morganii, EP14, 18 h, read-out: MIC

Compound	MIC [1, 7]	MIC [2, 8]	MIC [3, 9]	MIC [4, 10]	MIC [5, 11]	MIC [6, 12]	MIC [1]	MIC [2]	MIC [3]	MIC [4]	MIC [5]	MIC ([6]; 18 hours)
Nc1nc(/C(=N/OCF)C(=O)N[C@@H]2C(=O)N3C(C(=O)[O-])=C(/C=C/C[N+]4(CC(O)CO)CCOCC4)CS[C@H]23)ns1 (stereo partly drawn) [Example 38]	0.2 µg/mL (≈ 0.332 µM)	0.05 µg/mL (≈ 0.0831 µM)	0.4 µg/mL (≈ 0.665 µM)	0.1 µg/mL (≈ 0.166 µM)	1.56 µg/mL (≈ 2.59 µM)	0.1 µg/mL (≈ 0.166 µM)	–	–	–	–	–	–
NC(=O)Cc1cccc[n+]1C/C=C/C1=C(C(=O)[O-])N2C(=O)[C@@H](NC(=O)/C(=N\OCF)c3nsc(N)n3)[C@H]2SC1 [Example 82]	0.05 µg/mL (≈ 0.0867 µM)	≤ 0.025 µg/mL	0.4 µg/mL (≈ 0.694 µM)	≤ 0.025 µg/mL	1.56 µg/mL (≈ 2.71 µM)	≤ 0.025 µg/mL	–	–	–	–	–	–
Nc1nc(/C(=N/OC(F)F)C(=O)N[C@@H]2C(=O)N3C(C(=O)[O-])=C(/C=C/C[N+](CCO)(CCO)CCO)CS[C@H]23)ns1 [Example 117]	0.2 µg/mL (≈ 0.329 µM)	0.05 µg/mL (≈ 0.0823 µM)	0.4 µg/mL (≈ 0.658 µM)	0.05 µg/mL (≈ 0.0823 µM)	1.56 µg/mL (≈ 2.57 µM)	≤ 0.025 µg/mL	–	–	–	–	–	–
N#CCO/N=C(\C(=O)N[C@@H]1C(=O)N2C(C(=O)[O-])=C(/C=C/C[N+]34CCCN3CCC4)CS[C@H]12)c1nsc(N)n1 [Example 161, 7β-[2-(5-Amino-1,2,4-thiadiazol-3-yl)-(Z)-2-cyanomethoxyiminoacetoamido]-3-[(E)-3-(1,5-diazabicyclo[3.3.0]octane-1-io)-1-propen-1-yl]-3-cephem-4-carboxylate]	0.2 µg/mL (≈ 0.357 µM)	0.05 µg/mL (≈ 0.0893 µM)	0.2 µg/mL (≈ 0.357 µM)	0.05 µg/mL (≈ 0.0893 µM)	1.56 µg/mL (≈ 2.79 µM)	0.1 µg/mL (≈ 0.179 µM)	–	–	–	–	–	–
NC(=O)C[N+]1(C/C=C/C2=C(C(=O)[O-])N3C(=O)[C@@H](NC(=O)/C(=N\OCF)c4nsc(N)n4)[C@H]3SC2)CCC[C@@H]1CO (stereo partly drawn) [Example 17]	≤ 0.025 µg/mL	≤ 0.025 µg/mL	0.4 µg/mL (≈ 0.668 µM)	≤ 0.025 µg/mL	0.8 µg/mL (≈ 1.34 µM)	≤ 0.025 µg/mL	–	–	–	–	–	–
C[N+]1(CC=CC2=C(C(=O)[O-])N3C(=O)C(NC(=O)C(=NOCF)c4nsc(N)n4)C3SC2)CC(O)CC1CO (stereo not drawn) [Example 89-2]	–	–	–	–	–	–	≤ 0.025 µg/mL	≤ 0.025 µg/mL	0.2 µg/mL (≈ 0.35 µM)	≤ 0.025 µg/mL	0.8 µg/mL (≈ 1.4 µM)	≤ 0.025 µg/mL

The remaining lines, values ahead:

MIC [1, 7]	MIC [2, 8]	MIC [3, 9]	MIC [4, 10]	MIC [5, 11]	MIC [6, 12]	MIC [1]	MIC [2]	MIC [3]	MIC [4]	MIC [5]	MIC ([6]; 18 hours)	Compound
0.1 µg/mL (≈ 0.175 µM)	0.05 µg/mL (≈ 0.0876 µM)	0.4 µg/mL (≈ 0.701 µM)	0.05 µg/mL (≈ 0.0876 µM)	1.56 µg/mL (≈ 2.73 µM)	0.05 µg/mL (≈ 0.0876 µM)	–	–	–	–	–	–	CN(C)C(=O)C[N+](C)(C)C/C=C/C1=C(C(=O)[O-])N2C(=O)[C@@H](NC(=O)/C(=N\OCF)c3nsc(N)n3)[C@H]2SC1 [Example 56]
0.05 µg/mL (≈ 0.09 µM)	≤ 0.025 µg/mL	0.2 µg/mL (≈ 0.36 µM)	≤ 0.025 µg/mL	1.56 µg/mL (≈ 2.81 µM)	≤ 0.025 µg/mL	–	–	–	–	–	–	Nc1nc(/C(=N/OCF)C(=O)N[C@@H]2C(=O)N3C(C(=O)[O-])=C(/C=C/C[N+]4(CCO)CCCC4)CS[C@H]23)ns1 [Example 20]
≤ 0.025 µg/mL	≤ 0.025 µg/mL	0.2 µg/mL (≈ 0.35 µM)	≤ 0.025 µg/mL	0.8 µg/mL (≈ 1.4 µM)	≤ 0.025 µg/mL	–	–	–	–	–	–	CNC(=O)CC[N+](C)(C)C/C=C/C1=C(C(=O)[O-])N2C(=O)[C@@H](NC(=O)/C(=N\OCF)c3nsc(N)n3)[C@H]2SC1 [Example 97]
0.05 µg/mL (≈ 0.0834 µM)	0.05 µg/mL (≈ 0.0834 µM)	0.4 µg/mL (≈ 0.667 µM)	0.1 µg/mL (≈ 0.167 µM)	1.56 µg/mL (≈ 2.6 µM)	0.1 µg/mL (≈ 0.167 µM)	–	–	–	–	–	–	C[N+](C)(C/C=C/C1=C(C(=O)[O-])N2C(=O)[C@@H](NC(=O)/C(=N\OCF)c3nsc(N)n3)[C@H]2SC1)[C@H](CC(N)=O)C(N)=O [Example 61]
0.4 µg/mL (≈ 0.634 µM)	0.05 µg/mL (≈ 0.0793 µM)	0.8 µg/mL (≈ 1.27 µM)	0.1 µg/mL (≈ 0.159 µM)	1.56 µg/mL (≈ 2.47 µM)	0.1 µg/mL (≈ 0.159 µM)	–	–	–	–	–	–	C[N+](C)(C/C=C/C1=C(C(=O)[O-])N2C(=O)[C@@H](NC(=O)/C(=N\OCF)c3nsc(N)n3)[C@H]2SC1)CC(=O)N(CCO)CCO [Example 74]
